Some test systems named below: OVCAR-4 ovarian; U251 CNS; OVCAR-8 ovarian; DU-145 prostate; OVCAR-5 ovarian; SK-MEL-28 melanoma; OVCAR-3 ovarian; NCI-H522 lung; K-562 leukemia; SR leukemia.
Assay in all cases: NCI-60 cell line screen, 48 h

Among the data in PubChem BioAssay (NCI) are GI50 and TGI values, retold here.

Several values for one entry are separate records, joined by “and”; a condition that tells them apart may be missing. Identical values can stand only once.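 How tested: cells in 96-well plates exposed to compound for 48 hours at five concentrations. Here, GI50 denotes the concentration required for 50% inhibition of growth. The concentration for full growth arrest is given as TGI.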

For the compound `O=c1oc2ccc(F)cc2c(=O)n1-c1ccc(Br)cc1F`, the GI50 in the assay with OVCAR-4 ovarian was 1.27 µM; with U251 CNS it was 0.786 µM; with OVCAR-8 ovarian, 1.59 µM; in the assay with DU-145 prostate, 0.781 µM; in the assay on OVCAR-5 ovarian, 3.94 µM; with SK-MEL-28 melanoma, 0.373 µM. Moreover, the GI50 is 0.436 µM in the assay with OVCAR-3 ovarian, 0.363 µM with NCI-H522 lung, 0.422 µM with K-562 leukemia and 0.578 µM in the assay on SR leukemia. The TGI with OVCAR-4 ovarian is over 42.8 µM; with U251 CNS, over 100 µM; with OVCAR-8 ovarian it was over 100 µM; in the assay with DU-145 prostate, 22.8 µM; with OVCAR-5 ovarian, over 100 µM; in the assay on SK-MEL-28 melanoma, 2.48 µM. The TGI is 12.9 µM in the assay with OVCAR-3 ovarian, 9.38 µM in the assay with NCI-H522 lung, over 100 µM in the assay with K-562 leukemia and over 100 µM in the assay on SR leukemia.
In the case of `COc1ccc(/C=C(/C(=O)n2cnnn2)c2cc(OC)c(OC)c(OC)c2)cc1`, the GI50 with OVCAR-4 ovarian is 40.5 µM; with U251 CNS, 4.22 µM; in the assay on OVCAR-8 ovarian it was 3.66 µM; in the assay with DU-145 prostate it was 3.5 µM; in the assay on OVCAR-5 ovarian it was 5.78 µM; in the assay on SK-MEL-28 melanoma, 7.37 µM. Also, the GI50 in the assay with OVCAR-3 ovarian was 2.37 µM; in the assay with NCI-H522 lung, 2.26 µM; in the assay on K-562 leukemia it was 2.86 µM; with SR leukemia, 0.752 µM. The TGI with OVCAR-4 ovarian, in the assay with U251 CNS, in the assay on OVCAR-8 ovarian, in the assay on DU-145 prostate, in the assay on OVCAR-5 ovarian and in the assay on SK-MEL-28 melanoma was over 100 µM throughout. The TGI in the assay with OVCAR-3 ovarian was 5.94 µM; in the assay with NCI-H522 lung, 6.67 µM; in the assay with K-562 leukemia it was over 100 µM; in the assay on SR leukemia, over 100 µM.
With `COc1cc(O)c(C(C)=O)c(O)c1`, the TGI with OVCAR-4 ovarian, with U251 CNS, in the assay on OVCAR-8 ovarian, in the assay on DU-145 prostate, with OVCAR-5 ovarian and with SK-MEL-28 melanoma was over 100 µM throughout. For the same compound, the TGI in the assay with OVCAR-3 ovarian, with NCI-H522 lung, in the assay with K-562 leukemia and in the assay with SR leukemia was over 100 µM each time.
Turning to `CC[C@H](C)[C@H](NC(=O)[C@H]1CCCCN1C)C(=O)N(C)[C@H](C[C@@H](OC(C)=O)c1nc(C(=O)N[C@@H](Cc2ccccc2)C[C@H](C)C(=O)OC)cs1)C(C)C`, the GI50 is 0.00479 µM and 0.0025 µM in the assay with OVCAR-4 ovarian; 0.000376 µM and 0.0025 µM in the assay with U251 CNS; 0.000473 µM and 0.0025 µM in the assay on OVCAR-8 ovarian; 0.000208 µM with DU-145 prostate; 0.000583 µM and 0.0025 µM in the assay with OVCAR-5 ovarian; over 25 µM with SK-MEL-28 melanoma. The GI50 was 4.24e-05 µM in the assay with OVCAR-3 ovarian; 0.00028 µM and < 0.0025 µM with NCI-H522 lung; 0.000278 µM and 0.0025 µM with K-562 leukemia. Moreover, the TGI in the assay on OVCAR-4 ovarian is over 25 µM; with U251 CNS, over 25 µM; in the assay with OVCAR-8 ovarian it was over 25 µM; in the assay on OVCAR-5 ovarian it was over 25 µM; in the assay on SK-MEL-28 melanoma, over 25 µM; in the assay on OVCAR-3 ovarian it was 0.0116 µM. Further, the TGI in the assay on NCI-H522 lung is 0.0135 µM and < 0.0025 µM; with K-562 leukemia, over 25 µM; in the assay on SR leukemia it was 9.59 µM.
As for `CCc1cccc(CC)c1/C=C/c1cncc(C(=O)NC)c1`, the GI50 was over 21.4 µM in the assay with OVCAR-4 ovarian; 10.6 µM in the assay with U251 CNS; 15.4 µM in the assay with OVCAR-8 ovarian; 16.5 µM in the assay with DU-145 prostate; over 17.6 µM in the assay on OVCAR-5 ovarian; 13.4 µM in the assay with SK-MEL-28 melanoma. In addition, the GI50 in the assay with OVCAR-3 ovarian is 8.14 µM; with NCI-H522 lung, 8.82 µM; with K-562 leukemia, 5.62 µM; in the assay on SR leukemia, 7.24 µM. The TGI with OVCAR-4 ovarian, in the assay with U251 CNS, in the assay with OVCAR-8 ovarian, in the assay on DU-145 prostate, in the assay with OVCAR-5 ovarian and in the assay with SK-MEL-28 melanoma was over 25 µM each time. In addition, the TGI was over 20.2 µM with OVCAR-3 ovarian, over 23.9 µM in the assay on NCI-H522 lung, over 25 µM in the assay on K-562 leukemia and over 25 µM in the assay on SR leukemia.
Regarding `CN(C)CCCC1(c2ccc(F)cc2)OCc2cc(-c3cncc4ccccc34)ccc21` (stereo not drawn), the GI50 in the assay with OVCAR-4 ovarian is 3.27 µM; with U251 CNS, 2.22 µM; with OVCAR-8 ovarian it was 4.48 µM; in the assay on DU-145 prostate, 3.4 µM; in the assay on OVCAR-5 ovarian, 5.23 µM; in the assay with SK-MEL-28 melanoma, 1.75 µM. Further, the GI50 in the assay with OVCAR-3 ovarian was 2.94 µM; in the assay with NCI-H522 lung, 1.88 µM; in the assay with K-562 leukemia, 2.02 µM; in the assay with SR leukemia, 3 µM. The TGI is 13.7 µM in the assay on OVCAR-4 ovarian; 5.7 µM in the assay with U251 CNS; 19.8 µM with OVCAR-8 ovarian; 11.8 µM in the assay with DU-145 prostate; 18.3 µM in the assay on OVCAR-5 ovarian; 3.24 µM in the assay with SK-MEL-28 melanoma. The TGI amounted to 9.88 µM with OVCAR-3 ovarian, 4.08 µM in the assay with NCI-H522 lung, 5.17 µM in the assay on K-562 leukemia and 17.9 µM in the assay on SR leukemia.
As to `Cn1cc(CO)c2ccccc21`, the GI50 was 56.5 µM in the assay on OVCAR-4 ovarian; 40.3 µM with U251 CNS; over 100 µM with OVCAR-8 ovarian; over 100 µM with DU-145 prostate; over 100 µM with OVCAR-5 ovarian; 85.9 µM with SK-MEL-28 melanoma. Moreover, the GI50 was 29.5 µM in the assay on OVCAR-3 ovarian, 23.4 µM in the assay with NCI-H522 lung, 17.5 µM in the assay on K-562 leukemia and 17.9 µM with SR leukemia. The TGI in the assay with OVCAR-4 ovarian, with U251 CNS, in the assay with OVCAR-8 ovarian, with DU-145 prostate, in the assay on OVCAR-5 ovarian and with SK-MEL-28 melanoma was over 100 µM in each case. The TGI in the assay on OVCAR-3 ovarian, with NCI-H522 lung, with K-562 leukemia and in the assay on SR leukemia was over 100 µM in each case.
As to `COc1ccc(-c2cc(/C=C/C(=O)c3cc(OC)c(OC)c(OC)c3)[nH]n2)cc1OC`, the GI50 in the assay on OVCAR-4 ovarian was 1.62 µM; with U251 CNS it was 1.24 µM; in the assay with OVCAR-8 ovarian, 2.56 µM; with DU-145 prostate, 1.83 µM; in the assay with OVCAR-5 ovarian, 1.76 µM; in the assay with SK-MEL-28 melanoma, 1.92 µM. The GI50 with OVCAR-3 ovarian is 1.59 µM; in the assay with NCI-H522 lung, 1.33 µM; with K-562 leukemia, 0.731 µM; in the assay on SR leukemia, 0.22 µM. Further, the TGI came out at 7.17 µM with OVCAR-4 ovarian; 2.53 µM in the assay with U251 CNS; 11.7 µM with OVCAR-8 ovarian; 4.12 µM in the assay on DU-145 prostate; 4.31 µM with OVCAR-5 ovarian; 4.41 µM with SK-MEL-28 melanoma. Moreover, the TGI in the assay with OVCAR-3 ovarian is 3.15 µM; in the assay on NCI-H522 lung, 2.68 µM; with K-562 leukemia it was 9.71 µM; with SR leukemia it was 2.26 µM.
